Reference: patent US20060276464A1, “Diarylsulfone sulfonamides and use thereof” (Wyeth, priority 2005, published 2006)
pEC50, pIC50: −log10 of the molar value. Several values for one entry are separate records, joined by “and”; a condition that tells them apart may be missing. Identical values can stand only once. Like-named read-outs stand apart in the source and are kept apart here.

How the values were obtained:
SFRP-1 [1] = target: T1, SFRP-1 (Homo sapiens, UniProt Q8N474); assay: Cell-based assay for in vitro measurement of SFRP-1/SARP2 antagonist activity (U2OS cells co-transfected with 16x TCF-tk-Luciferase reporter, Wnt and hSFRP-1); details: for fold induction at 15 µM / fold induction at 10 µM: U2OS;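 as to all read-outs here: U2OS cells co-transfected with a TCF-tk luciferase reporter, a Wnt vector, hSFRP-1 or empty vector and CMV-βgal, luciferase luminescence read in cell lysates alongside βgal activity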
T1 sequence (Q8N474 32-314): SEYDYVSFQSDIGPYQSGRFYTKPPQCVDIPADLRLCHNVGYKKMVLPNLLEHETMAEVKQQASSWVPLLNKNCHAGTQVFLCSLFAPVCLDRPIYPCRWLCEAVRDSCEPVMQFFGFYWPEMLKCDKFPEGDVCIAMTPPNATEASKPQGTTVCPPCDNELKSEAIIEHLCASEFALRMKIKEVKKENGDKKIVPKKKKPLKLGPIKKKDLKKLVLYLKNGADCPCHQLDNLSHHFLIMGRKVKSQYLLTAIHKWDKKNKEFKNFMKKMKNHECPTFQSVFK

SFRP-1 [2] = target: T1, SFRP-1; assay: Fluorescence polarization binding assay (competitive displacement of a probe compound from SFRP-1); details: fluorescence anisotropy, 45 nM SFRP-1, 20 nM probe;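 also: test compound competes with a fluorescent probe held by SFRP-1, seen as a drop in probe anisotropy after incubation in darkness, with anisotropy as function of rising compound dose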
[3] = read-out: Fold Induction with SFRP-1, Conc 15 μM, single dose, luciferase reporter, fold induction over SFRP-1 control, cells with SFRP-1
[4] = read-out: Fold Induction without SFRP-1, Conc 15 μM, single dose, luciferase reporter, cells without SFRP-1 (specificity control)
[5] = read-out: Fold Induction with SFRP-1, U2OS cells, single dose 10 μM, luciferase reporter, fold induction over SFRP-1 control
[6] = read-out: Fold Induction with SFRP-1, Conc 15 μM, with SFRP-1, fold induction over SFRP-1 control, single dose
[7] = read-out: Fold Induction without SFRP-1, Conc 15 μM, without SFRP-1, single dose

pEC50 (SFRP-1 [1])	pIC50 (SFRP-1 [2])	fold induction at 10 µM (SFRP-1 [1]; [5])	SMILES	further results
7.06	7.22		COC(=O)COc1ccc2c(c1)CC(NS(=O)(=O)c1cc(S(=O)(=O)c3ccccc3)ccc1C(F)(F)F)C2 (stereo not drawn) [Example 1028, methyl{[2-({[5-(phenylsulfonyl)-2-(trifluoromethyl)phenyl]sulfonyl}amino)-2,3-dihydro-1H-inden-5-yl]oxy}acetate]	
5.83	6.59	3.7	CCCCNC(=O)N(C)CCNS(=O)(=O)c1cc(S(=O)(=O)c2ccccc2)ccc1C(F)(F)F [Example 831, N-(2-[[(butylamino)carbonyl](methyl)amino]ethyl}-5-(phenylsulfonyl)-2-(trifluoromethyl)benzenesulfonamide]	
6.33	6.57	0.6	CC(C)(C)c1ccc(C(=O)N2CCC(NS(=O)(=O)c3cc(S(=O)(=O)c4cccc(O)c4)ccc3C(F)(F)F)CC2)cc1 [Example 764, N-[1-(4-tert-butylbenzoyl)piperidin-4-yl]-5-[(3-hydroxyphenyl)sulfonyl]-2-(trifluoromethyl)benzenesulfonamide]	
	5.85	2.4	O=C(O)C1CCC(NS(=O)(=O)c2cc(S(=O)(=O)c3ccccc3)ccc2C(F)(F)F)CC1 (stereo not drawn) [Example 968, 4-({[5-(phenylsulfonyl)-2-(trifluoromethyl)phenyl]sulfonyl}amino)cyclohexanecarboxylic acid]	
6.35	6.60	3.4	N#CCCNS(=O)(=O)c1cc(S(=O)(=O)c2ccccc2)ccc1C(F)(F)F [Example 679, N-(2-cyanoethyl)-5-(phenylsulfonyl)-2-(trifluoromethyl)benzenesulfonamide]	
	6.10	3.5	O=S(=O)(N[C@@H]1CCNC1)c1cc(S(=O)(=O)c2ccccc2)ccc1C(F)(F)F [Example 797, 5-(phenylsulfonyl)-N-[(3R)-pyrrolidin-3-yl]-2-(trifluoromethyl)benzenesulfonamide]	
6.56	6.80		O=S(=O)(N[C@H]1CC[C@H](O)CC1)c1cc(S(=O)(=O)c2ccccc2)ccc1C(F)(F)F [Example 1013, N-(trans-4-hydroxycyclohexyl)-5-(phenylsulfonyl)-2-(trifluoromethyl)benzenesulfonamide]	
6.58	6.30	3.2	CC(C)(C)OC(=O)N1CCC(NS(=O)(=O)c2cc(S(=O)(=O)c3ccccc3)ccc2C(F)(F)F)CC1 [Example 687, tert-butyl 4-({[5-(phenylsulfonyl)-2-(trifluoromethyl)phenyl]sulfonyl}amino)piperidine-1-carboxylate]	
	6.10 and 6.15		CC(C)c1ccc(S(=O)(=O)c2ccc(F)cc2)cc1S(=O)(=O)NCCc1ccc[n+]([O-])c1 [Example 652, 5-[(4-fluorophenyl)sulfonyl]-2-isopropyl-N-[2-(1-oxidopyridin-3-yl)ethyl]benzenesulfonamide]	fold induction at 15 µM (SFRP-1 [1]; [3]): 3.8; fold induction at 15 µM (SFRP-1 [1]; [4]): 1
5.52	5.77	3.9	CC(C)c1ccc(S(=O)(=O)c2ccc(F)cc2)cc1S(=O)(=O)NCCC#N [Example 664, N-(2-cyanoethyl)-5-[(4-fluorophenyl)sulfonyl]-2-isopropylbenzenesulfonamide]	
	7.10	4.1	O=S(=O)(NC1Cc2ccccc2C1O)c1cc(S(=O)(=O)c2ccccc2)ccc1C(F)(F)F (stereo not drawn) [Example 900, N-(1-hydroxy-2,3-dihydro-1H-inden-2-yl)-5-(phenylsulfonyl)-2-(trifluoromethyl)benzenesulfonamide]	
6.41	6.40	3.7	N[C@H]1CC[C@H](NS(=O)(=O)c2cc(S(=O)(=O)c3ccccc3)ccc2C(F)(F)F)CC1 [Example 959, N-(trans-4-aminocyclohexyl)-5-(phenylsulfonyl)-2-(trifluoromethyl)benzenesulfonamide]	
6.13	6.89		O=C(CN1CCC(NS(=O)(=O)c2cc(S(=O)(=O)c3ccccc3)ccc2C(F)(F)F)CC1)N1CCOCC1 [Example 1087, N-[1-(2-morpholin-4-yl-2-oxoethyl)piperidin-4-yl]-5-(phenylsulfonyl)-2-(trifluoromethyl)benzenesulfonamide]	
6.07	6.05	4.4	COC(=O)c1cccc(S(=O)(=O)N2CCC(NS(=O)(=O)c3cc(S(=O)(=O)c4ccccc4)ccc3C(F)(F)F)CC2)c1 [Example 938, methyl 3-{[4-({[5-(phenylsulfonyl)-2-(trifluoromethyl)phenyl]sulfonyl}amino)piperidin-1-yl]sulfonyl}benzoate]	
5.75	6.22	4	CNc1ccccc1S(=O)(=O)c1ccc(C(F)(F)F)c(S(=O)(=O)NC2CCNCC2)c1 [Example 861, 5-{[2-(methylamino)phenyl]sulfonyl}-N-piperidin-4-yl-2-(trifluoromethyl)benzenesulfonamide]	

Second part, the molecule before the results:

SMILES	pEC50 (SFRP-1 [1])	pIC50 (SFRP-1 [2])	fold induction at 10 µM (SFRP-1 [1]; [5])	further results
Cc1ccc(S(=O)(=O)c2ccccc2)cc1S(=O)(=O)NC1CCN(C(=O)CC(C)(C)C)CC1 [Example 504, N-[1-(3,3-dimethylbutanoyl)piperidin-4-yl]-2-methyl-5-(phenylsulfonyl)benzenesulfonamide]		5.40		fold induction at 15 µM (SFRP-1 [1]; [3]): 2.2; fold induction at 15 µM (SFRP-1 [1]; [4]): 1
CC(C)c1ccc(S(=O)(=O)c2ccc(N3CCN(C)CC3)cc2)cc1S(=O)(=O)NC1CCOCC1 [Example 547, 2-isopropyl-5-{[4-(4-methylpiperazin-1-yl)phenyl]sulfonyl}-N-(tetrahydro-2H-pyran-4-yl)benzenesulfonamide]		6.00 and 5.60		fold induction at 15 µM (SFRP-1 [1]; [3]): 3.7; fold induction at 15 µM (SFRP-1 [1]; [4]): 1.3
CN(CCNS(=O)(=O)c1cc(S(=O)(=O)c2ccccc2)ccc1C(F)(F)F)C(=O)Oc1ccc(F)cc1 [Example 872, 4-fluorophenyl methyl[2-({[5-(phenylsulfonyl)-2-(trifluoromethyl)phenyl]sulfonyl]amino)ethyl]carbamate]	5.71	6.22		fold induction at 10 µM (SFRP-1 [1]; read-out: Fold Induction with SFRP-1): 3.1
CCNC(=O)N1CCC(NS(=O)(=O)c2cc(S(=O)(=O)c3ccccc3)ccc2C)CC1 [Example 501, N-ethyl-4-({[2-methyl-5-(phenylsulfonyl)phenyl]sulfonyl}amino)piperidine-1-carboxamide]		5.40		fold induction at 15 µM (SFRP-1 [1]; [3]): 2.5; fold induction at 15 µM (SFRP-1 [1]; [4]): 0.9
CC(C)c1ccc(S(=O)(=O)c2ccc(N3C[C@@H](C)NC[C@@H]3C)cc2)cc1S(=O)(=O)NC1CCOCC1 (relative stereo) [Example 627, 5-({4-trans-2,5-dimethylpiperazin-1-ylphenyl}sulfonyl)-2-isopropyl-N-(tetrahydro-2H-pyran-4-yl)benzenesulfonamide]		5.30		Fold Induction with SFRP-1 (SFRP-1 [1]; Conc 15 μM, single dose, luciferase reporter, fold induction over SFRP-1 control, cells with SFRP-1): 3.4 fold; Fold Induction without SFRP-1 (SFRP-1 [1]; Conc 15 μM, single dose, luciferase reporter, cells without SFRP-1 (specificity control)): 1.1 fold
Cc1ccc(S(=O)(=O)c2ccccc2)cc1S(=O)(=O)NCCn1ccnc1 [Example 314, N-[2-(1H-imidazol-1-yl)ethyl]-2-methyl-5-(phenylsulfonyl)benzenesulfonamide]		5.92		fold induction at 15 µM (SFRP-1 [1]; [6]): 3.3; fold induction at 15 µM (SFRP-1 [1]; [7]): 1.3
CC(C)c1ccc(S(=O)(=O)c2ccc(F)cc2)cc1S(=O)(=O)NC1CCN(C(=O)OC(C)(C)C)CC1 [Example 517, tert-butyl 4-[({5-[(4-fluorophenyl)sulfonyl]-2-isopropylphenyl}sulfonyl)amino]piperidine-1-carboxylate]		5.80		fold induction at 15 µM (SFRP-1 [1]; [3]): 2.2; fold induction at 15 µM (SFRP-1 [1]; [4]): 1
CNc1ccc(S(=O)(=O)c2ccc(C(C)C)c(S(=O)(=O)NC3CCNCC3)c2)cc1 [Example 568, 2-isopropyl-5-{[4-(methylamino)phenyl]sulfonyl}-N-piperidin-4-ylbenzenesulfonamide]		6.30		fold induction at 15 µM (SFRP-1 [1]; [3]): 3.8; fold induction at 15 µM (SFRP-1 [1]; [4]): 1.1
COc1cccc(C(=O)N2CCC(NS(=O)(=O)c3cc(S(=O)(=O)c4ccccc4)ccc3C)CC2)c1 [Example 463, N-[1-(3-methoxybenzoyl)piperidin-4-yl]-2-methyl-5-(phenylsulfonyl)benzenesulfonamide]		6.15		fold induction at 15 µM (SFRP-1 [1]; [6]): 2.9; fold induction at 15 µM (SFRP-1 [1]; [7]): 1
COc1ccccc1C(=O)N1CCC(NS(=O)(=O)c2cc(S(=O)(=O)c3ccccc3)ccc2C)CC1 [Example 462, N-[1-(2-methoxybenzoyl)piperidin-4-yl]-2-methyl-5-(phenylsulfonyl)benzenesulfonamide]		5.70		fold induction at 15 µM (SFRP-1 [1]; [6]): 2.9; fold induction at 15 µM (SFRP-1 [1]; [7]): 1
Cc1ccc(S(=O)(=O)c2ccc(F)cc2)cc1S(=O)(=O)NC1CCN(Cc2ccccc2)CC1 [Example 574, N-(1-benzylpiperidin-4-yl)-5-[(4-fluorophenyl)sulfonyl]-2-methylbenzenesulfonamide]		5.22		fold induction at 15 µM (SFRP-1 [1]; [3]): 2.1; fold induction at 15 µM (SFRP-1 [1]; [4]): 1.2
